In general, Ki refers to the dissociation constant of the complex between target and ligand, obtained from inhibition or displacement. One may read the IC50 as the concentration that inhibits the measured activity by half. Low values mean greater potency in that assay, high ones weaker potency in that assay.

The target of one experiment is human FLAP (Homo sapiens (Human), UniProt P20292). Description: FLAP binding assay (HTRF format). A digest of the protocol: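 Read-out is the HTRF ratio. Each reported figure averages two assay plates on which samples were tested in duplicate.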
For orientation: Time-resolved FRET reads energy transfer from a long-lived donor to a nearby acceptor.

Experiment [1] deals with leukotriene pathway in human whole blood. Description: Human whole blood assay (LTB4 levels after A23187 stimulation). It is filed as cell-based. The procedure:
The ability of the compounds of the present invention to treat a FLAP-mediated disease and/or disorder, or associated symptoms or complications thereof, was determined using the following procedures. Binding assay data represent the average value obtained from two different assay plates, with samples run in duplicate on each plate. Human whole blood assay data represent a single replicate on an assay plate using whole blood from at least one healthy donor.
An in vitro cellular assay was performed using human whole blood collected in heparin-containing tubes, which was used to test the ability of compounds to modulate the leukotriene pathway in human whole blood. The blood was diluted 1:1 in RPMI medium, pre-incubated for 15 min at 37° Celsius with test compounds at various concentrations, and then stimulated with calcium ionophore, A23187 (7 μg/mL), for 30 min at 37° Celsius. The samples were then centrifuged and plasma was removed. The plasma was diluted in assay buffer and LTB4 levels were measured using a commercial kit (Enzo Life Sciences). The concentration of each compound that was required for half-maximal inhibition (modulation) of recombinant enzyme activity (IC50) was calculated by a 4-parameter equation using the program GraphPad Prism (GraphPad software).

Where [2] appears, read: human FLAP wild type membranes, HTRF format, Table 6 (additional runs).
The mark [3] stands for this setting: human whole blood diluted 1:1 in RPMI, A23187 stimulation, Table 6 (additional runs).
The mark [4] stands for this setting: Homo sapiens, blood diluted 1:1 in RPMI, 15 min pre-incubation, A23187 7 μg/mL for 30 min at 37° Celsius, plasma LTB4.
Setting [5] is: human FLAP-containing membranes, HTRF ligand 25 nM, 2 h, average of two plates, duplicates, read-out: FLAP Binding wild type HTRF Ki.

Read-outs that look alike come from different tables or passages of the source.

Sequence of human FLAP (P20292 whole entry): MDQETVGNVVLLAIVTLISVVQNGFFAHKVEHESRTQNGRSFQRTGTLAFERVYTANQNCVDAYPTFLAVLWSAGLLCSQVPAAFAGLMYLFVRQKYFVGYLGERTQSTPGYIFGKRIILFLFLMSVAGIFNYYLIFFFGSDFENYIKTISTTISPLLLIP

`Nc1cnc(-c2ccc(C3CCCCC3)c(O)c2F)cn1` [Example 345, 3-(5-Aminopyrazin-2-yl)-6-cyclohexyl-2-fluorophenol]: the Ki on human FLAP (setting [2]) was determined as 14.2 nM. This compound also came in with an IC50 in experiment [1] (setting [3]) of 15.1 nM.
For `Nc1cnc(-c2ccc(CC3CCCCC3)c(O)c2F)cn1` [Example 346, 3-(5-Aminopyrazin-2-yl)-6-(cyclohexylmethyl)-2-fluorophenol] the same measures were 45.3 nM and 176 nM.
For `Nc1cnc(-c2ccc(C3CCC3)c(Oc3ccnc(N)c3)c2F)cn1` [Example 347, 5-{3-[(2-Aminopyridin-4-yl)oxy]-4-cyclobutyl-2-fluorophenyl}pyrazin-2-amine] the same measures were 47.6 nM and 396 nM.
Turning to `Nc1cnc(-c2ccc(C3CCC3)c(Oc3cncc(N)n3)c2F)cn1` [Example 348, 5-{3-[(6-Aminopyrazin-2-yl)oxy]-4-cyclobutyl-2-fluorophenyl}pyrazin-2-amine], at human FLAP (setting [2]), the inhibitory constant (Ki) is 13.1 nM. In addition, half-maximal inhibition in experiment [1] (setting [3]) (IC50) was put at 147 nM.
`Nc1cnc(-c2ccc(C3CCC3)c(Oc3cncnc3)c2F)cn1` [Example 349, 5-[4-Cyclobutyl-2-fluoro-3-(pyrimidin-5-yloxy)phenyl]pyrazin-2-amine] returned a Ki at human FLAP (setting [2]) of 31 nM. The same compound returned an IC50 in experiment [1] (setting [3]) of more than 1000 nM.
`Nc1cnnc(Oc2c(C3CCC3)ccc(-c3cnc(N)cn3)c2F)c1` [Example 350, 6-[3-(5-Aminopyrazin-2-yl)-6-cyclobutyl-2-fluorophenoxy]pyridazin-4-amine] had a Ki at human FLAP (setting [2]) of 52.9 nM. In experiment [1] (setting [3]), this compound returned an IC50 of 449 nM.
For `CC(C)(C)c1ccc(-c2cnc3[nH]ccc3c2)c(F)c1Oc1ncccn1` [Example 351, 5-[4-tert-Butyl-2-fluoro-3-(pyrimidin-2-yloxy)phenyl]-1H-pyrrolo[2.3-b]pyridine] the same measures were 54.4 nM and 124 nM.
For the compound `Nc1ncc(-c2ccc(C3CCC3)c(O)c2F)cn1` [Intermediate E, 3-(2-Aminopyrimidin-5-yl)-6-cyclobutyl-2-fluorophenol], at human FLAP (setting [2]), the Ki stood at 99.5 nM. The IC50 in experiment [1] (setting [4]) and in experiment [1] (setting [3]) was 1100 nM each time.
In the case of `CC(C)(C)c1ccc(-c2cnc(N)cn2)c(F)c1O` [Intermediate G, 3-(5-Aminopyrazin-2-yl)-6-tert-butyl-2-fluorophenol], the Ki at human FLAP (setting [5]) worked out at 77.9 nM. Further, the IC50 in experiment [1] (setting [4]) and in experiment [1] (setting [3]) was 575 nM throughout.
Turning to `CC(C)(C)c1ccc(-c2cnc(N)nc2)c(F)c1O` [Intermediate H, 3-(2-Aminopyrimidin-5-yl)-6-tert-butyl-2-fluorophenol], the Ki at human FLAP (setting [5]) was 72.3 nM. Besides, the IC50 in experiment [1] (setting [4]) and in experiment [1] (setting [3]) was 287 nM throughout.

Values taken from US9732093B2, “FLAP modulators” (JANSSEN PHARMACEUTICA NV, priority 2013, dated 2017).
